In patent US20210002232A1, “HETEROCYCLIC COMPOUNDS AS FUNGICIDES” (PI INDUSTRIES LTD., priority 2018, published 2021) one finds inhibition of growth, pest or weed control and control data, which are given here for 29 compounds.

Bounds are passed on as bounds.

The test system of test [1] is Pyricularia oryzae. Kind of test: microbe, parasite or virus in culture. Type of test: cell-based. To be noted: 168 h, read-out: control.
Test [2] concerns Phakopsora pachyrhizi. Description: Phakopsora pachyrhizi test in soybean, preventive spray in greenhouse. Type of test: in vivo. The note with it: preventive spray on soybean plants, inoculated one day after treatment, compared to the untreated check, read-out: control (efficacy from disease severity rating).
Test [3] has as its system Alternaria solani. Kind of test: Alternaria solani (early blight of tomato/potato) mycelial radial growth on Potato Dextrose Agar. The note with it: 168 h, read-out: control.
Experimental: Compounds were dissolved in 0.3% DMSO & then added to Potato Dextrose Agar medium just prior to dispensing it into Petri dishes. 5 ml medium with compound in the desired concentration was dispensed into 60 mm sterile petri-plates. After solidification each plate was seeded with 5 mm size mycelial disc taken form periphery of actively growing virulent culture plate. Plates were incubated in growth chambers at 25° C. temperature and 60% relative humidity for seven days and radial growth was measured.
In test [4] the test system is Corynespora cassiicola. Description: Corynespora cassiicola (leaf spot of tomato) mycelial radial growth on Potato Dextrose Agar. Type of test: cell-based. The note with it: 300 ppm; radial growth after seven days, 25° C., 70% relative humidity; compared to the untreated check.

With `CS(=O)(=NC(=O)c1ccc(C2=NOC(C(F)(F)F)N2)cc1)c1ccc(Cl)cc1` (stereo not drawn) [Compound 1, N-((4-chlorophenyl)(methyl)(oxo)-λ^6-sulfaneylidene)-4-(5-(trifluoromethyl)-4,5-dihydro-1,2,4-oxadiazol-3-yl)benzamide], the inhibition of growth at 300 ppm in test [1] was over 70%. Also, the pest or weed control at 500 ppm in test [2] was over 90%.
In the case of `CN(CCOc1ccccc1)C(=O)c1ccc(-c2n[nH]c(C(F)(F)F)n2)cc1` [Compound 11, N-methyl-N-(2-phenoxyethyl)-4-(5-(trifluoromethyl)-1h-1,2,4-triazol-3-yl)benzamide], the inhibition of growth at 300 ppm in test [3] was over 70%.
Regarding `COc1ccc(S(C)(=O)=Nc2ccc(C3=NOC(C(F)(F)F)N3)cc2)cc1` (stereo not drawn) [Compound 16, (4-methoxyphenyl)(methyl)((4-(5-(trifluoromethyl)-4,5-dihydro-1,2,4-oxadiazol-3-yl)phenyl)imino)-λ^6-sulfanone], the inhibition of growth at 300 ppm in test [1] and in test [3] was over 70% each time.
With `CN(CCOc1ccccc1)C(=O)c1ccc(-c2noc(C(F)F)n2)cc1` [Compound 17, 4-(5-(difluoromethyl)-1,2,4-oxadiazol-3-yl)-N-methyl-N-(2-phenoxyethyl)benzamide], in test [1], the inhibition of growth at 300 ppm was over 70%.
Turning to `CS(=O)(=Nc1ccc(C2=NOC(C(F)(F)F)N2)cc1)c1ccccn1` (stereo not drawn) [Compound 24, Methyl(pyridin-2-yl)((4-(5-(trifluoromethyl)-4,5-dihydro-1,2,4-oxadiazol-3-yl)phenyl)imino)-λ^6-sulfanone], the inhibition of growth at 300 ppm in test [1] and in test [3] was over 70% in each case. Besides, in test [2], the pest or weed control at 500 ppm is over 90%.
As to `COc1ccc(S(C)(=O)=NC(=O)c2ccc(C3=NOC(C(F)(F)F)N3)cc2)cc1` (stereo not drawn) [Compound 25, N-((4-methoxyphenyl)(methyl)(oxo)-λ^6-sulfaneylidene)-4-(5-(trifluoromethyl)-4,5-dihydro-1,2,4-oxadiazol-3-yl)benzamide], in test [2], the pest or weed control at 500 ppm is over 90%. In addition, the inhibition of growth at 300 ppm in test [3] was over 70%.
In the case of `CS(=O)(=Nc1ccc(C2=NOC(C(F)(F)F)N2)cc1)c1ccc(C(F)(F)F)cc1` (stereo not drawn) [Compound 26, Methyl((4-(5-(trifluoromethyl)-4,5-dihydro-1,2,4-oxadiazol-3-yl)phenyl)imino)(4-(trifluoromethyl)phenyl)-λ^6-sulfanone], in test [3], the inhibition of growth at 300 ppm was over 70%.
With `CS(=O)(=NCc1ccc(C2=NOC(C(F)F)N2)cc1)c1ccccc1` (stereo not drawn) [Compound 27, ((4-(5-(difluoromethyl)-4,5-dihydro-1,2,4-oxadiazol-3-yl)benzyl)imino)(methyl)(phenyl)-λ^6-sulfanone], in test [1], the inhibition of growth at 300 ppm was over 70%.
With `Cc1ccc(S(C)(=O)=NCc2ccc(C3=NOC(C(F)(F)F)N3)cc2)cc1` (stereo not drawn) [Compound 30, methyl(p-tolyl)((4-(5-(trifluoromethyl)-4,5-dihydro-1,2,4-oxadiazol-3-yl)benzyl)imino)-λ^6-sulfanone], the inhibition of growth at 300 ppm in test [1] and in test [3] was over 70% in each case. The pest or weed control at 500 ppm in test [2] is over 90%.
For `O=C(Cc1ccccc1)Nc1ccc(-c2noc(C(F)F)n2)cc1` [Compound 31, N-(4-(5-(difluoromethyl)-1,2,4-oxadiazol-3-yl)phenyl)-2-phenylacetamide], the inhibition of growth at 300 ppm in test [3] is over 70%.
The same measure, in the same setting: for `CN(Cc1ccc(-c2n[nH]c(C(F)(F)F)n2)cc1)C(=O)C1CC1` [Compound 37, N-methyl-N-(4-(5-(trifluoromethyl)-1h-1,2,4-triazol-3-yl)benzyl)cyclopropanecarboxamide] the value was over 70%; for `CN(Cc1ccc(-c2n[nH]c(C(F)(F)F)n2)cc1)C(=O)C1CCC1` [Compound 38, N-methyl-N-(4-(5-(trifluoromethyl)-1h-1,2,4-triazol-3-yl)benzyl)cyclobutanecarboxamide], over 70%.
With `CS(=O)(=NCc1ccc(-c2nc(C(F)F)n[nH]2)cc1)c1ccccc1` (stereo not drawn) [Compound 42, ((4-(3-(difluoromethyl)-1h-1,2,4-triazol-5-yl)benzyl)imino)(methyl)(phenyl)-λ^6-sulfanone], the inhibition of growth at 300 ppm in test [1] is over 70%.
On to `O=C(O)c1ccc(-c2cc(C(F)(F)F)on2)cc1` [Compound 56, 4-(5-(trifluoromethyl)isoxazol-3-yl)benzoic acid], for which, in test [2], the pest or weed control at 500 ppm is over 90%. Besides, the inhibition of growth at 300 ppm in test [3] was over 70%.
As for `CS(=O)(=NC(=O)c1ccc(-c2cc(C(F)(F)F)on2)cc1)c1ccc(C(F)(F)F)cc1` (stereo not drawn) [Compound 59, N-(methyl(oxo)(4-(trifluoromethyl)phenyl)-λ^6-sulfaneylidene)-4-(5-(trifluoromethyl)isoxazol-3-yl)benzamide], the control result in test [4] is recorded as “more than 70%”.
Turning to `CS(=O)(=NC(=O)c1ccc(-c2cc(C(F)(F)F)on2)cc1)c1ccccn1` (stereo not drawn) [Compound 62, N-(methyl(oxo)(pyridin-2-yl)-λ^6-sulfaneylidene)-4-(5-(trifluoromethyl)isoxazol-3-yl)benzamide], the inhibition of growth at 300 ppm in test [3] is over 70%.
With `CN(CCOc1ccccc1)C(=O)c1ccc(-c2coc(C(F)(F)F)n2)cc1` [Compound 67, N-methyl-N-(2-phenoxyethyl)-4-(2-(trifluoromethyl)oxazol-4-yl)benzamide], the inhibition of growth at 300 ppm in test [1] and in test [3] was over 70% in each case. Moreover, the pest or weed control at 500 ppm in test [2] was over 90%.
For `CS(=O)(=NC(=O)c1ccc(-c2coc(C(F)(F)F)n2)cc1)c1ccc(F)cc1` (stereo not drawn) [Compound 69, N-((4-fluorophenyl)(methyl)(oxo)-λ^6-sulfaneylidene)-4-(2-(trifluoromethyl)oxazol-4-yl)benzamide], the pest or weed control at 500 ppm in test [2] was over 90%.
For the compound `O=C(Nc1ccc(F)cc1F)c1ccc(-c2nc(C(F)(F)F)oc2Cl)cc1` [Compound 70, 4-(5-chloro-2-(trifluoromethyl)oxazol-4-yl)-N-(2,4-difluorophenyl)benzamide], the pest or weed control at 500 ppm in test [2] was over 90%.
The same measure, in the same setting: for `CN(CCOc1ccccc1)C(=O)c1ccc(-c2nc(C(F)(F)F)oc2Cl)cc1` [Compound 71, 4-(5-chloro-2-(trifluoromethyl)oxazol-4-yl)-N-methyl-N-(2-phenoxyethyl)benzamide] the value was over 90%.
On to `CS(=O)(=NC(=O)c1ccc(-c2coc(C(F)(F)F)n2)cc1)c1ccc(Cl)cc1` (stereo not drawn) [Compound 72, N-((4-chlorophenyl)(methyl)(oxo)-λ^6-sulfaneylidene)-4-(2-(trifluoromethyl)oxazol-4-yl)benzamide], for which the pest or weed control at 500 ppm in test [2] is over 90%.
Consider `CS(=O)(=NC(=O)c1ccc(-c2nc(C(F)(F)F)oc2Cl)cc1)c1ccccc1` (stereo not drawn) [Compound 74, 4-(5-chloro-2-(trifluoromethyl)oxazol-4-yl)-N-(methyl(oxo)(phenyl)-λ^6-sulfaneylidene)benzamide], for which the pest or weed control at 500 ppm in test [2] is over 90%.
Still for that read-out and setting: for `O=C(Nc1ccc(F)cc1F)c1ccc(-c2coc(C(F)(F)F)n2)cc1` [Compound 77, N-(2,4-difluorophenyl)-4-(2-(trifluoromethyl)oxazol-4-yl)benzamide] the value was over 90%.
With `COc1ccc(S(C)(=O)=NC(=O)c2ccc(-c3coc(C(F)(F)F)n3)cc2)cc1` (stereo not drawn) [Compound 78, N-((4-methoxyphenyl)(methyl)(oxo)-λ^6-sulfaneylidene)-4-(2-(trifluoromethyl)oxazol-4-yl)benzamide], the inhibition of growth at 300 ppm in test [3] is over 70%.
For the compound `O=C(Nc1c(F)cccc1F)c1ccc(-c2coc(C(F)(F)F)n2)cc1` [Compound 80, N-(2,6-difluorophenyl)-4-(2-(trifluoromethyl)oxazol-4-yl)benzamide], the pest or weed control at 500 ppm in test [2] is over 90%.
For the compound `O=C(Nc1ccccc1)c1ccc(-c2coc(C(F)(F)F)n2)cc1` [Compound 81, N-phenyl-4-(2-(trifluoromethyl)oxazol-4-yl)benzamide], the inhibition of growth at 300 ppm in test [3] is over 70%.
For the compound `CN(C(=O)c1ccc(-c2coc(C(F)(F)F)n2)cc1)c1ccccc1` [Compound 82, N-methyl-N-phenyl-4-(2-(trifluoromethyl)oxazol-4-yl)benzamide], the inhibition of growth at 300 ppm in test [1] and in test [3] was over 70% throughout. The pest or weed control at 500 ppm in test [2] is over 90%.
As to `CS(=O)(=NC(=O)c1ccc(-c2coc(C(F)(F)F)n2)cc1)c1ccccc1` (stereo not drawn) [Compound 83, N-(methyl(oxo)(phenyl)-λ^6-sulfaneylidene)-4-(2-(trifluoromethyl)oxazol-4-yl)benzamide], the pest or weed control at 500 ppm in test [2] was over 90%.
For `CS(=O)(=NC(=O)c1ccc(-c2coc(C(F)(F)F)n2)cc1)c1ccccc1F` (stereo not drawn) [Compound 84, N-((2-fluorophenyl)(methyl)(oxo)-λ^6-sulfaneylidene)-4-(2-(trifluoromethyl)oxazol-4-yl)benzamide], the inhibition of growth at 300 ppm in test [1] and in test [3] was over 70% throughout.
